Experimental findings from ChEMBL document CHEMBL5604062, “ASAP - ZIKV NS2B-NS3 protease fluorescence dose response” (2024) are described below.

The target of this test is Nonstructural protein 3 (Zika virus, UniProt A0A024AXB9). Nature of the test: Functional biochemical assay to identify treatments for viral infectious disease that targets Zika NS2B-NS3 protease. Utilizing a direct enzyme activity measurement method, reading the fluorescence intensity is used to characterize the relative potency of inhibitors as IC50. Set-up: species or system PRVABC59.
Nonstructural protein 3, sequence (A0A024AXB9 whole entry): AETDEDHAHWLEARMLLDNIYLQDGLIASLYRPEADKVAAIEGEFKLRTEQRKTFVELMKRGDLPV
`Clc1ccc2[nH]cc(Cc3ccc(-c4nn[nH]n4)cc3)c2c1` returned an IC50 above 99.5 µM.
Regarding `C[C@H](CC(=O)O)NC(=O)c1cc(Cl)cc(NC(=O)OCc2ccccc2)c1`, the 50% inhibitory concentration (IC50) is above 99.5 µM.
In turn, `O=C(Nc1cc(Cl)cc(C(=O)Nc2ccccc2[C@@H]2C[C@H]2C(=O)O)c1)OCc1ccccc1` registered an IC50 above 99.5 µM.
With `NCc1cc(C(=O)N[C@H]2CCCOC2)cc([C@@H]2C[C@H]2c2cc(Cl)cc(NC(=O)OCc3ccccc3)c2)c1`, the IC50 was determined as 11.4 µM.
`CC(C)(C)NC(=O)[C@H](Nc1cccc(-c2nn[nH]n2)c1)c1cc(Cl)cc(NC(=O)OCc2ccccc2)c1` had an IC50 of 27.8 µM.
As to `O=C(Nc1cc(Cl)cc(C(=O)N2CCC[C@H]2c2nnn[nH]2)c1)OCc1ccccc1`, the IC50 was above 99.5 µM.
As to `C=CC[C@H](Nc1ccc(-c2nn[nH]n2)cc1)c1cc(Cl)cc(NC(=O)OCc2ccccc2)c1`, the IC50 turned out to be 11.3 µM. This lies in the double-digit micromolar range.
The compound `NCc1cc(C(=O)N2CCNC(=O)C2)cc([C@@H]2C[C@H]2c2cc(Cl)cc(NC(=O)OCc3ccccc3)c2)c1` displayed an IC50 of 14.6 µM. The IC50 values of the last two compounds are within 1.5-fold of each other.
For `O=C(O)c1cccc(NC(=O)c2cc(Cl)cc3[nH]ncc23)c1`, the IC50 was above 99.5 µM.
In turn, `O=C(Nc1cc(Cl)cc([C@H]2CN(Cc3ccccc3)C[C@@H]2c2cccc(-c3nn[nH]n3)c2)c1)OCc1ccccc1` came in with an IC50 of 6.87 µM.
In the case of `CCCNC(=O)[C@H](Nc1cccc(-c2nn[nH]n2)c1)c1cc(Cl)cc(NC(=O)OCc2ccccc2)c1`, 48.5 µM corresponded to half-maximal inhibition (IC50).
The value for `CC(C)NC(=O)[C@H](Nc1cccc(-c2nn[nH]n2)c1)c1cc(Cl)cc(NC(=O)OCc2ccccc2)c1` was 60.9 µM; that for `O=C(Nc1cc(Cl)cc(C(=O)N2CCC(c3nn[nH]n3)CC2)c1)OCc1ccccc1` was above 99.5 µM.
In turn, `CN(C)C(=O)c1cc(CN)cc([C@@H]2C[C@H]2c2cc(Cl)cc(NC(=O)OCc3ccccc3)c2)c1` had an IC50 of 11.9 µM.
Compound `COC[C@H](NC(=O)c1cc(Cl)cc(NC(=O)OCc2ccccc2)c1)c1nnn[nH]1` returned an IC50 above 99.5 µM.
`CNC(=O)[C@H](Nc1ccc(-c2nnn[nH]2)cc1)c1cc(Cl)cc(C2CC2)c1`: the IC50 was above 99.5 µM.
In turn, `O=C(Nc1cc(Cl)cc(C(=O)N2CCC[C@H](c3nnn[nH]3)C2)c1)OCc1ccccc1` returned an IC50 above 99.5 µM.
`O=C(Nc1cc(Cl)cc([C@H](Nc2cccc(-c3nn[nH]n3)c2)C(=O)NCc2ccccc2)c1)OCc1ccccc1` returned an IC50 of 12.8 µM.
In the case of `CCOC(=O)[C@H]1[C@H](c2cc(Cl)cc(NC(=O)OCc3ccccc3)c2)[C@H]1c1cccc(-c2nnn[nH]2)c1`, half-maximal inhibition (IC50) was put at 26.9 µM.
`NCc1cc(C(=O)N2CCOCC2)cc([C@@H]2C[C@H]2c2cc(Cl)cc(NC(=O)OCc3ccccc3)c2)c1` registered an IC50 of 13.8 µM.
Compound `NCc1cc(/C=C/C(=O)O)cc(NC(=O)c2cc(Cl)cc(NC(=O)OCc3ccccc3)c2)c1` returned an IC50 of 3.17 µM.
In turn, `CCOC(=O)[C@H]1[C@H](c2cccc(CN)c2)[C@H]1c1cc(Cl)cc(NC(=O)OCc2ccccc2)c1` displayed an IC50 of 17.2 µM.
In the case of `C=CC[C@H](Nc1cccc(C(=O)O)c1)c1cc(Cl)cc2[nH]ncc12` it was above 99.5 µM; in that of `C=CC[C@H](Nc1cc(Cl)cc(NC(=O)OCc2ccccc2)c1)c1ccc(-c2nn[nH]n2)cc1`, 9.66 µM; in that of `CC(C)CNC(=O)[C@H](Nc1cccc(-c2nn[nH]n2)c1)c1cc(Cl)cc(NC(=O)OCc2ccccc2)c1`, 31.1 µM.
Regarding `NCc1cc(CO)cc([C@H]2C[C@@H]2c2cc(Cl)cc(NC(=O)OCc3ccccc3)c2)c1`, the IC50 is 10.4 µM. This IC50 is about 3-fold lower than that of the compound before.
Regarding `O=C(Nc1cc(Cl)cc(-c2ccc3nc(C(=O)O)ncc3c2)c1)OCc1ccccc1`, 24.7 µM corresponded to half-maximal inhibition (IC50). Against the preceding compound, the IC50 is about 2.4-fold higher.
`CC(=Cc1cccc(CN)c1)c1cc(Cl)cc(NC(=O)OCc2ccccc2)c1` returned an IC50 of 8.13 µM. Compared with the last compound, the IC50 is about 3-fold lower.
On to `CNC(=O)[C@H](Nc1cc(Cl)cc(NC(=O)OCc2ccccc2)c1)c1ccc(-c2nn[nH]n2)cc1`, for which the IC50 is above 99.5 µM.
For the compound `CC(=Cc1cccc(-c2nnn[nH]2)c1)c1cc(Cl)cc(NC(=O)OCc2ccccc2)c1`, the IC50 came out at 12.1 µM.
`O=C(Nc1cc(Cl)cc(N[C@H](C#CCO)c2ccc(-c3nn[nH]n3)cc2)c1)OCc1ccccc1`: inhibition was half-maximal at 52.4 µM (IC50). This IC50 is about 4.3-fold higher than that of the compound before.
